Values quoted from earlier work in paper PMC6017357, “In Vitro Inhibitory Effects of Synthetic Cannabinoid EAM-2201 on Cytochrome P450 and UDP-Glucuronosyltransferase Enzyme Activities in Human Liver Microsomes” (Molecules : A Journal of Synthetic Chemistry and Natural …, 2018).
Read-outs that look alike come from different tables or passages of the source.

Experiments:
[1] = tested on: human recombinant CYP2C19; conditions: mixed-type inhibition, human recombinant CYP2C19 enzymes; read-out: Ki, [S]-mephenytoin hydroxylation activity; cited from earlier work
CYP2C9 [2] = biological target: T1, CYP2C9 (Homo sapiens, UniProt P11712); conditions: read-out: Ki, CYP2C9-catalyzed diclofenac hydroxylation; mixed or competitive inhibition, human liver microsomes; cited from earlier work
T1 sequence (P11712 whole entry): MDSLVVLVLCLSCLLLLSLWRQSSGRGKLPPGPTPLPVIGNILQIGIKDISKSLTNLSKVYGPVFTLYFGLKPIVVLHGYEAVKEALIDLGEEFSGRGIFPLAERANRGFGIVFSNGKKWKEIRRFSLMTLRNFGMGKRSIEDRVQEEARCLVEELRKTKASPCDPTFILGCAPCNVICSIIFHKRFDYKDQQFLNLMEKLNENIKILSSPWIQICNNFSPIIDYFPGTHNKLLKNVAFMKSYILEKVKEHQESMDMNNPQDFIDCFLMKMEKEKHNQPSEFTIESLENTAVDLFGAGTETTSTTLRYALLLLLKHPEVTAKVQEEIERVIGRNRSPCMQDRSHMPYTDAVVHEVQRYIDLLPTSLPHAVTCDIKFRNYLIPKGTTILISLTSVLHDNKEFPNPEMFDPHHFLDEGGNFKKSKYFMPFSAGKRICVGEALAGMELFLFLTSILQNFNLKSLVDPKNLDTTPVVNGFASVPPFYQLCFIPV

CYP3A4 [3] = biological target: T2, CYP3A4 (Homo sapiens, UniProt P08684); conditions: enzyme source not given; cited from earlier work
T2 sequence (P08684 whole entry): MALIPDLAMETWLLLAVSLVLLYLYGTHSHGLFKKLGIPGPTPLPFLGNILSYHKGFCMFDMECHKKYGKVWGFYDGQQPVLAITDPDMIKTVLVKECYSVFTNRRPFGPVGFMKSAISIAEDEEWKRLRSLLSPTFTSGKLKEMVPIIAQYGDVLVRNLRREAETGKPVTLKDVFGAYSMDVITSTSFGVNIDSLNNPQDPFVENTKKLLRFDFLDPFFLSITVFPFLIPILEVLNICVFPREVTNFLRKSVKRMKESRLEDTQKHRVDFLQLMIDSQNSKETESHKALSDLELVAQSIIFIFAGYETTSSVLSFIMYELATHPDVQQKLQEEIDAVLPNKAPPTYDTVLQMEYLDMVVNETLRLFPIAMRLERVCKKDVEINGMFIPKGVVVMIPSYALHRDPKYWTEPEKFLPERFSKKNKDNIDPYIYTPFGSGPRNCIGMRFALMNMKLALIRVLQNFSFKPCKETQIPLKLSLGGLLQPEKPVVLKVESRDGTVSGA

CYP3A4 [4] = biological target: T2, CYP3A4; conditions: human liver microsomes, time-dependent inhibitors with reported clinical drug–drug interaction; cited from earlier work
CYP2C8 [5] = biological target: T3, CYP2C8 (Homo sapiens, UniProt P10632); conditions: cited from earlier work; for time-dependent inhibition of CYP2C8 activity: human liver microsomes
T3 sequence (P10632 1-490): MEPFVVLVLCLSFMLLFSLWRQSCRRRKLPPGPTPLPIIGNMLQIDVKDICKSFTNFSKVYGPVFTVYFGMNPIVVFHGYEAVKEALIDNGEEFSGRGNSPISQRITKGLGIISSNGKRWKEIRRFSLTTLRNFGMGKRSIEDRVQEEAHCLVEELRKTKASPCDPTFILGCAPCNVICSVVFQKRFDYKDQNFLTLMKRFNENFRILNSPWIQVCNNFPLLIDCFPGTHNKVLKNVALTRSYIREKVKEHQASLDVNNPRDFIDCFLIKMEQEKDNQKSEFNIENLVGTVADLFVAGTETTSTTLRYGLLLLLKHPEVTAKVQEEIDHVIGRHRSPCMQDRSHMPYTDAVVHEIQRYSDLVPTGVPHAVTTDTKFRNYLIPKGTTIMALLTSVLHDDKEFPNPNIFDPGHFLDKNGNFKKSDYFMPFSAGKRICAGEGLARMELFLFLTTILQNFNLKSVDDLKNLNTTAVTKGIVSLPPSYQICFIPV

CYP2C19 [6] = biological target: T4, CYP2C19 (Homo sapiens, UniProt P33261); conditions: human liver microsomes; cited from earlier work
T4 sequence (P33261 whole entry): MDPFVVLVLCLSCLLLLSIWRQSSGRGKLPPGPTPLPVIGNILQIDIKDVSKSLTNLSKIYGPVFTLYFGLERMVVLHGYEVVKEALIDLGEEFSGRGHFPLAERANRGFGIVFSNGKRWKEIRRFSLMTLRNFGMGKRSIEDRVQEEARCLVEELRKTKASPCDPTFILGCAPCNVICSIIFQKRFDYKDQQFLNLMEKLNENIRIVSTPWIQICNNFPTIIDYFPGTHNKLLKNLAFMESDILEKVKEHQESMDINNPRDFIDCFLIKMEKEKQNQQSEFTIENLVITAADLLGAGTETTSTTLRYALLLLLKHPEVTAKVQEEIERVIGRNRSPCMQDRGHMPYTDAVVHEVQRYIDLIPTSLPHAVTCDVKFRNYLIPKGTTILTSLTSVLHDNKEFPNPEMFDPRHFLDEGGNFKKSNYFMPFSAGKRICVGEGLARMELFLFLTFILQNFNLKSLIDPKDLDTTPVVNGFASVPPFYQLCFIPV

CYP3A4 [7] = biological target: T2, CYP3A4; conditions: read-out: Ki, CYP3A4 midazolam 1′-hydroxylation; competitive (AM-2201) and noncompetitive (MAM-2201) inhibition, human liver microsomes; cited from earlier work
UGT1A3 = biological target: T5, UGT1A3 (Homo sapiens, UniProt P35503); conditions: human liver microsomes, cited from earlier work; for Ki: read-out: Ki, UGT1A3-catalyzed chenodeoxycholic acid 24-acyl glucuronidation
T5 sequence (P35503 29-534): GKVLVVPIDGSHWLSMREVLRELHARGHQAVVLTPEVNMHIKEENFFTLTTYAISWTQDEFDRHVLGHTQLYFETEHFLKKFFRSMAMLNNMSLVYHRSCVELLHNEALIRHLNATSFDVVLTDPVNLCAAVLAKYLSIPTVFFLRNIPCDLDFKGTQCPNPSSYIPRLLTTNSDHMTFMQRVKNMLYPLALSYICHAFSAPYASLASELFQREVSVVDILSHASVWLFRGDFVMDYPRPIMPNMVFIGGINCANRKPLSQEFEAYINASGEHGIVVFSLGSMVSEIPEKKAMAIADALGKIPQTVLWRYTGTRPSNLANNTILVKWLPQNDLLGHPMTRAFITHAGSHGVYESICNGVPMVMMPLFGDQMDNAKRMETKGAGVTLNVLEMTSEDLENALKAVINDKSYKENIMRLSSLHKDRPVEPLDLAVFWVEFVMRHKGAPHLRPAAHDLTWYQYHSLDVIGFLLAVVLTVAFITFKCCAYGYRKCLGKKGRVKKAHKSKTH

[8] = human liver microsomes; cited from earlier work
CYP2C8 [9] = biological target: T3, CYP2C8; design: CYP2C8, CYP2C9, CYP2C19 and CYP3A4 activities in ultrapooled human liver microsomes were evaluated; from tissue; host or cells: ultrapooled human liver microsomes; method as in PMID 15304522; conditions: typical CYP2C8 inhibitors; cited from earlier work
human recombinant CYP3A4 = conditions: competitive inhibition, human recombinant CYP3A4 enzymes; read-out: Ki, CYP3A4-catalyzed diltiazem N-demethylation; cited from earlier work
UGT1A9 = biological target: T6, UGT1A9 (Homo sapiens, UniProt O60656); design: method as in PMID 23230132; conditions: human liver and intestinal microsomes; cited from earlier work
T6 construct: ultrapooled human liver microsomes (0.2 mg/mL), 5 mM UDPGA; from tissue; host or cells: ultrapooled human liver microsomes
T6 sequence (O60656 26-530): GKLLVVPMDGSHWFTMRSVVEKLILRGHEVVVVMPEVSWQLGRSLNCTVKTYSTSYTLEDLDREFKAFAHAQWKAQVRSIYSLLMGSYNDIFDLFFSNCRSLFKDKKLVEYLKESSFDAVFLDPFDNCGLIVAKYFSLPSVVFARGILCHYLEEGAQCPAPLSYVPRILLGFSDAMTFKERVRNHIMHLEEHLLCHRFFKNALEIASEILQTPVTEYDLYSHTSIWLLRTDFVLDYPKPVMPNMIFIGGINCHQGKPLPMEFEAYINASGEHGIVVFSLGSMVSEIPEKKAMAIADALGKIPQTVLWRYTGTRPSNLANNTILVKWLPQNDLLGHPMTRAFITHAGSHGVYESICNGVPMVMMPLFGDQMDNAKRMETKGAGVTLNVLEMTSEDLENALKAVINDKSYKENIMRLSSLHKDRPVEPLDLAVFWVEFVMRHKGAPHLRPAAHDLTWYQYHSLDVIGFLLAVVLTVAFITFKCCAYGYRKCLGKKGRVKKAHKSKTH

UGT2B7 = biological target: T7, UGT2B7 (Homo sapiens, UniProt P16662); design: method as in PMID 23230132; conditions: human liver and intestinal microsomes; cited from earlier work
T7 construct: ultrapooled human liver microsomes (0.2 mg/mL), 5 mM UDPGA; from tissue; host or cells: ultrapooled human liver microsomes
T7 sequence (P16662 24-529): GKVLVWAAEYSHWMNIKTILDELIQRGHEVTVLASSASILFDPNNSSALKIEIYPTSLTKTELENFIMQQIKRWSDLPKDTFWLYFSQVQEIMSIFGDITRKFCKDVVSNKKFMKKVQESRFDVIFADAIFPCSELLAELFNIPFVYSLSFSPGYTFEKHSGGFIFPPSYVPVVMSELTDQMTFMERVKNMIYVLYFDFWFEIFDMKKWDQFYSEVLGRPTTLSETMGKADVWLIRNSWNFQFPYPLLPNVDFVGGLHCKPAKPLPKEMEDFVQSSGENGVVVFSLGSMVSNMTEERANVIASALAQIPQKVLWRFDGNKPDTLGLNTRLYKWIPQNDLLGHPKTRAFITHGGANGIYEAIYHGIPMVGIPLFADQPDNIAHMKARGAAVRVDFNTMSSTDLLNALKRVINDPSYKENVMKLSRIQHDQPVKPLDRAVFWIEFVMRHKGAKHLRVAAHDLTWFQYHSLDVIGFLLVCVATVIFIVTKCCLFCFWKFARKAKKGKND

CYP2C9 [10] = biological target: T1, CYP2C9; design: CYP2C8, CYP2C9, CYP2C19 and CYP3A4 activities in ultrapooled human liver microsomes were evaluated; from tissue; host or cells: ultrapooled human liver microsomes; method as in PMID 18838506; conditions: typical CYP2C9 mechanism-based inhibitors; cited from earlier work
CYP2C19 [11] = biological target: T4, CYP2C19; conditions: typical mechanism-based CYP2C19 inhibitors; cited from earlier work

Structure (SMILES): CCCCCc1cc(O)c2c(c1)OC(C)(C)[C@@H]1CCC(C)=C[C@@H]21 [THC, ∆9-tetrahydrocannabinol]
- Ki [1]: 1.93 µM
- Ki (CYP2C9 [2]): 1.31 µM
- inhibition of CYP3A4 activity (CYP3A4 [3]): did not inhibit

Structure (SMILES): CC[C@H]1OC(=O)[C@H](C)[C@@H](O[C@H]2C[C@@](C)(OC)[C@@H](O)[C@H](C)O2)[C@H](C)[C@@H](O[C@@H]2O[C@H](C)C[C@H](N(C)C)[C@H]2O)[C@](C)(OC)C[C@@H](C)C(=O)[C@H](C)[C@@H](O)[C@]1(C)O [clarithromycin]
- inactivation efficiency (kinact/Ki), CYP3A4 (CYP3A4 [4]): 46.7 M⁻¹ s⁻¹

Structure (SMILES): O=C(c1cccc2ccccc12)c1cn(CCCCCF)c2ccccc12 [AM-2201]
- inactivation efficiency (kinact/Ki), CYP2C8 (CYP2C8 [5]): 430 M⁻¹ s⁻¹
- time-dependent inhibition of CYP2C8 activity (CYP2C8 [5]): exhibited time-dependent inhibition
- Ki (CYP2C9 [2]): 3.9 µM
- inhibition of CYP2C19-catalyzed [S]-mephenytoin hydroxylation (CYP2C19 [6]): did not inhibit
- Ki (CYP3A4 [7]): 4 µM
- Ki (UGT1A3): 4.3 µM
- number of metabolites [8]: 19 metabolites

Structure (SMILES): Cc1ccc(C(=O)c2cn(CCCCCF)c3ccccc23)c2ccccc12 [MAM-2201, (1-(5-fluoropentyl)-1H-indol-3-yl)(4-methyl-1-naphthalenyl)-methanone]
- inactivation efficiency (kinact/Ki), CYP2C8 (CYP2C8 [5]): 1230 M⁻¹ s⁻¹
- time-dependent inhibition of CYP2C8 activity (CYP2C8 [5]): exhibited time-dependent inhibition
- Ki (CYP2C9 [2]): 5.6 µM
- inhibition of CYP2C19-catalyzed [S]-mephenytoin hydroxylation (CYP2C19 [6]): did not inhibit
- Ki (CYP3A4 [7]): 5.4 µM
- Ki (UGT1A3): 5 µM
- number of metabolites [8]: 19 metabolites

Structure (SMILES): CCCCc1oc2ccccc2c1C(=O)c1cc(I)c(OCCN(CC)CC)c(I)c1 [amiodarone]
- inactivation efficiency (kinact/Ki), CYP2C8 (CYP2C8 [9]): 9.5 M⁻¹ s⁻¹

Structure (SMILES): C=C(C)[C@@H]1CCC(C)=C[C@H]1c1c(O)cc(CCCCC)cc1O [cannabidiol]
- Ki [1]: 0.793 µM
- Ki (human recombinant CYP3A4): 1 µM
- inhibition of UGT1A9 activity (UGT1A9): inhibited
- inhibition of UGT2B7 activity (UGT2B7): inhibited

Structure (SMILES): O=C(O)COc1ccc(C(=O)c2cccs2)c(Cl)c1Cl [tienilic acid]
- inactivation efficiency (kinact/Ki), CYP2C9 (CYP2C9 [10]): 142 M⁻¹ s⁻¹

Structure (SMILES): CC(C(=O)O)c1ccc(C(=O)c2cccs2)cc1 (racemic) [(±)-suprofen]
- inactivation efficiency (kinact/Ki), CYP2C9 (CYP2C9 [10]): 18.3 M⁻¹ s⁻¹

Structure (SMILES): CCCCCc1cc(O)c2c(c1)OC(C)(C)c1ccc(C)cc1-2 [cannabinol]
- inhibition of UGT1A9 activity (UGT1A9): inhibited
- inhibition of UGT2B7 activity (UGT2B7): inhibited
- inhibition of CYP3A4 activity (CYP3A4 [3]): did not inhibit

Structure (SMILES): CC1(C)[C@@H](O)CC[C@]2(C)[C@H]3C(=O)C=C4[C@@H]5C[C@@](C)(C(=O)O)CC[C@]5(C)CC[C@@]4(C)[C@]3(C)CC[C@@H]12 [glycyrrhetinic acid]
- IC50 (UGT1A3; read-out: IC50, UGT1A3-catalyzed chenodeoxycholic acid 24-acyl glucuronidation, selective UGT1A3 inhibitor): 4.3 µM

Structure (SMILES): COC(=O)[C@H](c1ccccc1Cl)N1CCc2sccc2C1 [clopidogrel]
- inactivation efficiency (kinact/Ki), CYP2C19 (CYP2C19 [11]): 65 M⁻¹ s⁻¹

Structure (SMILES): NNCCc1ccccc1 [phenelzine]
- inactivation efficiency (kinact/Ki), CYP2C8 (CYP2C8 [9]): 52.2 M⁻¹ s⁻¹
